Source: the NIST ThermoML archive (doi:10.1016/j.jct.2017.03.016)
± gives the expanded uncertainty stated by the source.

What was measured:
[1] = for surface tension liquid-gas: Maximal bubble pressure; for mass density: 101.33 kPa, Liquid, Vibrating tube method
[2] = refractive index (Na D-line) (dimensionless); details: 101.33 kPa, Liquid, Standard Abbe refractometry

**Q.** What does the source list for `CCn1cc[n+](CCOC)c1.N#C[N-]C#N` [1-ethyl-3-(2-methoxyethyl)imidazolium dicyanamide]?
**A.** surface tension liquid-gas ([1]; 298.15 K): 51 ± 0.5 mN/m; mass density ([1]; 298.15 K): 1113.6 ± 2.3 kg/m3; surface tension liquid-gas ([1]; 303.15 K): 50.7 ± 0.5 mN/m; mass density ([1]; 303.15 K): 1110.21 ± 2.3 kg/m3; surface tension liquid-gas ([1]; 308.15 K): 50.4 ± 0.5 mN/m; mass density ([1]; 308.15 K): 1106.83 ± 2.3 kg/m3; surface tension liquid-gas ([1]; 313.15 K): 50.1 ± 0.5 mN/m; mass density ([1]; 313.15 K): 1103.48 ± 2.3 kg/m3; surface tension liquid-gas ([1]; 318.15 K): 49.8 ± 0.5 mN/m; mass density ([1]; 318.15 K): 1100.15 ± 2.3 kg/m3; surface tension liquid-gas ([1]; 323.15 K): 49.5 ± 0.5 mN/m; mass density ([1]; 323.15 K): 1096.84 ± 2.3 kg/m3; surface tension liquid-gas ([1]; 328.15 K): 49.3 ± 0.5 mN/m; mass density ([1]; 328.15 K): 1093.53 ± 2.3 kg/m3; surface tension liquid-gas ([1]; 333.15 K): 49.1 ± 0.5 mN/m; mass density ([1]; 333.15 K): 1090.26 ± 2.3 kg/m3; surface tension liquid-gas ([1]; 338.15 K): 48.8 ± 0.5 mN/m; mass density ([1]; 338.15 K): 1087 ± 2.3 kg/m3; refractive index ([2]; 298.15 K): 1.5053 ± 0.0031; refractive index ([2]; 303.15 K): 1.504 ± 0.0031; refractive index ([2]; 308.15 K): 1.5028 ± 0.0031; refractive index ([2]; 313.15 K): 1.5017 ± 0.0031; refractive index ([2]; 318.15 K): 1.5 ± 0.0031; refractive index ([2]; 323.15 K): 1.4989 ± 0.0031; refractive index ([2]; 328.15 K): 1.4977 ± 0.0031; refractive index ([2]; 333.15 K): 1.496 ± 0.0031; refractive index ([2]; 338.15 K): 1.4946 ± 0.0031
